Values joined by “and” are separate entries in the source; they are usually repeats but may differ in a detail not shown here. Equal entries are not always repeated. Where two headings read alike, the source gives them in different places. Marks after values point to notes of the source that are not given here.
Legend:
S1P2 receptor = S1P2 receptor (Homo sapiens (Human), UniProt O95136); test: Antagonist assay (FLIPR TETRA, inhibition of reference agonist EC80) on S1P2; assay type: cell-based; settings: tested as the citrate salt
S1P2 receptor, sequence (O95136 whole entry): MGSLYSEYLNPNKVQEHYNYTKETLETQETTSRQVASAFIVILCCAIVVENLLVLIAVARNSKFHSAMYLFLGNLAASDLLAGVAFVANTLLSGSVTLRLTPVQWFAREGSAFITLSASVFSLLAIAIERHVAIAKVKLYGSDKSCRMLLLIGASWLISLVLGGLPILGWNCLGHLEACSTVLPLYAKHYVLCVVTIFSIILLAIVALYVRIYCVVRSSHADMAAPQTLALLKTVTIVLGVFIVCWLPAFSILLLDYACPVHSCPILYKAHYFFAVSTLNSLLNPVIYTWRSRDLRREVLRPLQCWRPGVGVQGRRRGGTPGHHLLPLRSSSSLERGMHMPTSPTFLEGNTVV
Description: (§1) Antagonist percentage inhibition determinations were obtained by assaying sample compounds and referencing the control (EC80) wells for each profiled (GPCR) which evaluated binding to S1P2 and S1P5 receptors. The samples were run using a single addition assay protocol. The protocol design is as follows.
(§2) Unless specified otherwise, the sample compounds were diluted in 100% anhydrous DMSO including all dilutions. The compounds were tested as the citrate salt (1 equivalent per molecule). If the sample compound is provided in a different solvent all master stock dilutions are performed in the specified solvent. All control wells contained identical solvent final concentrations as the sample compound wells.
(§3) The sample compounds were transferred from a master stock solution into a daughter plate that was used in the assay. Each sample compound was diluted into an assay buffer (1×HBSS with 20 mM HEPES, 2.5 mM Probenecid, and 0.4% Free Fatty Acid BSA) at an appropriate concentration to obtain final specified concentrations.
(§4) Using the EC80 values that were determined real-time, stimulated all pre-incubated sample compounds and reference antagonists (if applicable) were compared with the EC80 values of reference agonist. These were read for 180 seconds using the FLIPR^TETRA (This assay added reference agonist to respective wells-then fluorescences measurements were collected to calculate IC50 values). All plates were subjected to appropriate baseline corrections. Once baseline corrections were processed, maximum fluorescence values were exported and data manipulated to calculate percentage activation, percentage inhibition and Z′.

S1P5 receptor = S1P5 receptor (Homo sapiens (Human), UniProt Q9H228); test: Antagonist assay (FLIPR TETRA, inhibition of reference agonist EC80) on S1P5; assay type: cell-based; settings: tested as the citrate salt
S1P5 receptor, sequence (Q9H228 whole entry): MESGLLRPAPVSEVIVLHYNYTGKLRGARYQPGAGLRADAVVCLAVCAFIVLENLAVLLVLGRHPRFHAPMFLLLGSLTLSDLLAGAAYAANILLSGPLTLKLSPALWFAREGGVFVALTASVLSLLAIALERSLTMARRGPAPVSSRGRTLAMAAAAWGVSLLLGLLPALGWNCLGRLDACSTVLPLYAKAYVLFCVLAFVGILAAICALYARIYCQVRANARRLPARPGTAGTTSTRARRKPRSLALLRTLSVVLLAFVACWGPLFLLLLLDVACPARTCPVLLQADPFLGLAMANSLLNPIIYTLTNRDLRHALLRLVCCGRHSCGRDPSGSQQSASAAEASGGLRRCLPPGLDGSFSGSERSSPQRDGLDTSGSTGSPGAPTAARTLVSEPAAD
Description: as §1, §2, §3, §4

[1] = Blood concentrations and pharmacokinetics after 1 mg/kg i.v. in mice; assay type: in vivo, mouse
Description: 1 mg/kg of the compound was injected by IV and blood was withdrawn at the times in table 1. The amount of starting compound was quantified by a standard curve using MS/MS determinations.

[2] = In vitro plasma protein binding; assay type: in vitro ADME, mouse; settings: mouse plasma, test concentration 5 nM
[3] = Microsomal intrinsic clearance; settings: mouse, microsomes, mouse microsomes, test conc. 1 μM

Cc1nn(C)c2nc(NNC(=O)Nc3cc(Cl)nc(Cl)c3)cc(C(C)C)c12 [JTE013, N-(1H-4-isopropyl-1,3-dimethylpyrazolo[3,4-b]pyridine-6-yl)amino-N′-(2,6-dichloropyridine-4-yl) urea]
IC50 (S1P2 receptor): 11 nM
IC50 (S1P5 receptor): 1.3 nM
AUC0-inf ([1]; mouse blood, individual mice): 88.2 ng·h/mL and 122 ng·h/mL
AUC0-inf Extrapolated ([1]; mouse blood, individual mice): 6.50% and 2.89% and 12.1%
AUC0-tlast ([1]; mouse blood, individual mice): 85.6 ng·h/mL and 108 ng·h/mL
AUMC0-inf ([1]; mouse blood, individual mice): 153 h^2*ng/mL and 71.2 h^2*ng/mL and 652 h^2*ng/mL
AUMC0-inf Extrapolated ([1]; mouse blood, individual mice): 68.6% and 39.9% and 88.0%
AUMC0-tlast ([1]; mouse blood, individual mice): 48.1 h^2*ng/mL and 42.8 h^2*ng/mL and 78.0 h^2*ng/mL
C0 ([1]; mouse blood, individual mice): 397 ng/mL and 536 ng/mL
CL ([1]; mouse blood, individual mice): 188 mL/min/kg and 136 mL/min/kg
MRT0-inf ([1]; mouse blood, individual mice): 1.40 h and 0.807 h and 5.33 h
MRT0-tlast ([1]; mouse blood, individual mice): 0.500 h and 0.725 h
Terminal half-life ([1]; mouse blood, individual mice): 6.11 h and 3.56 h and 18.7 h
Vss ([1]; mouse blood, individual mice): 12.8 L/kg and 9.16 L/kg and 43.6 L/kg
AUC0-inf Extrapolated, Mean S.D. ([1]; mouse blood, mean): 7.15 ± 4.61%
AUMC0-inf Extrapolated, Mean S.D. ([1]; mouse blood, mean): 65.5 ± 24.2%
AUMC0-inf, Mean S.D. ([1]; mouse blood, mean): 292 ± 314 h^2*ng/mL
AUMC0-tlast, Mean S.D. ([1]; mouse blood, mean): 56.3 ± 19.0 h^2*ng/mL
C0, Mean S.D. ([1]; mouse blood, mean): 462 ± 70.1 ng/mL
Blood Concentrations ([1]; mouse, 5 min, individual mice, LLOQ = 1 ng/mL): 231 ng/mL and 302 ng/mL
Blood Concentrations ([1]; mouse, 0.25 h, individual mice, LLOQ = 1 ng/mL): 78.3 ng/mL and 95.8 ng/mL
Blood Concentrations ([1]; mouse, 0.5 h, individual mice, LLOQ = 1 ng/mL): 33.8 ng/mL and 40.4 ng/mL
Blood Concentrations ([1]; mouse, 1 h, individual mice, LLOQ = 1 ng/mL): 14.4 ng/mL and 13.4 ng/mL
Blood Concentrations ([1]; mouse, 2 h, individual mice, LLOQ = 1 ng/mL): 3.16 ng/mL and 3.12 ng/mL
Blood Concentrations ([1]; mouse, 4 h, individual mice, LLOQ = 1 ng/mL): 0.732^c ng/mL and 0.771^c ng/mL
Blood Concentrations ([1]; mouse, 6 h, individual mice, LLOQ = 1 ng/mL): 0.496^c ng/mL and 0.643^c ng/mL
Blood Concentrations ([1]; mouse, 12 h, individual mice, LLOQ = 1 ng/mL): BLQ
pharmacokinetics / blood levels following intravenous injection in mice (in words) ([1]; mouse, comparison between compounds): better than compound 2
AUC0-inf ([1]; mouse, in vivo, iv, 1 mg/kg, mouse blood, individual mice, read-out: AUC0-inf): 109 ng·h/mL
AUC(0-t) ([1]; mouse, in vivo, iv, 1 mg/kg, mouse blood, individual mice, read-out: AUC0-tlast): 102 ng·h/mL
C0 ([1]; mouse, in vivo, iv, 1 mg/kg, mouse blood, individual mice, read-out: C0): 453 ng/mL
clearance ([1]; mouse, in vivo, iv, 1 mg/kg, mouse blood, individual mice, read-out: CL (converted)): 153 mL/min/kg
MRT last ([1]; mouse, in vivo, iv, 1 mg/kg, mouse blood, individual mice, read-out: MRT0-tlast): 0.471 h
AUC0-inf ([1]; mouse, in vivo, iv, 1 mg/kg, mouse blood, mean, read-out: AUC0-inf, Mean S.D.): 107 ± 17.2 ng·h/mL
AUC(0-t) ([1]; mouse, in vivo, iv, 1 mg/kg, mouse blood, mean, read-out: AUC0-tlast, Mean S.D.): 98.4 ± 11.4 ng·h/mL
clearance ([1]; mouse, in vivo, iv, 1 mg/kg, mouse blood, mean, read-out: CL, Mean S.D. (converted)): 159 mL/min/kg
MRT inf ([1]; mouse, in vivo, iv, 1 mg/kg, mouse blood, mean, read-out: MRT0-inf, Mean S.D.): 2.51 ± 2.46 h
MRT last ([1]; mouse, in vivo, iv, 1 mg/kg, mouse blood, mean, read-out: MRT0-tlast, Mean S.D.): 0.565 ± 0.139 h
half-life ([1]; mouse, in vivo, iv, 1 mg/kg, mouse blood, mean, read-out: Terminal half-life, Mean S.D. (converted)): 9.45 ± 8.09 h
Vd ([1]; mouse, in vivo, iv, 1 mg/kg, mouse blood, mean, read-out: Vss, Mean S.D.): 21.9 ± 18.9 L/kg
concentration at 5 min ([1]; mouse, in vivo, iv, 1 mg/kg, mouse, 5 min, individual mice, LLOQ = 1 ng/mL, read-out: Blood Concentrations): 282 ng/mL
concentration at 5 min ([1]; mouse, in vivo, iv, 1 mg/kg, mouse, 5 min, mean of 3 mice, read-out: Blood Concentrations, Mean S.D.): 272 ± 36.6 ng/mL
concentration at 0.25 h ([1]; mouse, in vivo, iv, 1 mg/kg, mouse, 0.25 h, individual mice, LLOQ = 1 ng/mL, read-out: Blood Concentrations): 109 ng/mL
concentration at 0.25 h ([1]; mouse, in vivo, iv, 1 mg/kg, mouse, 0.25 h, mean of 3 mice, read-out: Blood Concentrations, Mean S.D.): 94.4 ± 15.4 ng/mL
concentration at 0.5 h ([1]; mouse, in vivo, iv, 1 mg/kg, mouse, 0.5 h, individual mice, LLOQ = 1 ng/mL, read-out: Blood Concentrations): 44.4 ng/mL
concentration at 0.5 h ([1]; mouse, in vivo, iv, 1 mg/kg, mouse, 0.5 h, mean of 3 mice, read-out: Blood Concentrations, Mean S.D.): 39.5 ± 5.35 ng/mL
concentration at 1 h ([1]; mouse, in vivo, iv, 1 mg/kg, mouse, 1 h, individual mice, LLOQ = 1 ng/mL, read-out: Blood Concentrations): 11.8 ng/mL
concentration at 1 h ([1]; mouse, in vivo, iv, 1 mg/kg, mouse, 1 h, mean of 3 mice, read-out: Blood Concentrations, Mean S.D.): 13.2 ± 1.31 ng/mL
concentration at 2 h ([1]; mouse, in vivo, iv, 1 mg/kg, mouse, 2 h, individual mice, LLOQ = 1 ng/mL, read-out: Blood Concentrations): 2.72 ng/mL
concentration at 2 h ([1]; mouse, in vivo, iv, 1 mg/kg, mouse, 2 h, mean of 3 mice, read-out: Blood Concentrations, Mean S.D.): 3 ± 0.243 ng/mL
concentration at 4 h ([1]; mouse, in vivo, iv, 1 mg/kg, mouse, 4 h, individual mice, LLOQ = 1 ng/mL, read-out: Blood Concentrations): 1.01 ng/mL
concentration at 4 h ([1]; mouse, in vivo, iv, 1 mg/kg, mouse, 4 h, mean (n = 2 for Cmpd-1), read-out: Blood Concentrations, Mean S.D.): 0.838 ± 0.151 ng/mL
concentration at 6 h ([1]; mouse, in vivo, iv, 1 mg/kg, mouse, 6 h, individual mice, LLOQ = 1 ng/mL, read-out: Blood Concentrations): 0.805 ng/mL
concentration at 6 h ([1]; mouse, in vivo, iv, 1 mg/kg, mouse, 6 h, mean (n = 2 for Cmpd-1), read-out: Blood Concentrations, Mean S.D.): 0.648 ± 0.155 ng/mL
concentration at 12 h ([1]; mouse, in vivo, iv, 1 mg/kg, mouse, 12 h, individual mice, LLOQ = 1 ng/mL, read-out: Blood Concentrations): 0.547 ng/mL
mean fraction bound (%) [2]: 99.7%
microsomal CLint at 1 μM ([3]; NADPH-dependent Clint (microsomal intrinsic clearance)): 770 µL/min/mg
half-life at 1 μM ([3]; NADPH-dependent T1/2 (half-life)): 0.05 h
microsomal CLint at 1 μM ([3]; NADPH-free Clint (microsomal intrinsic clearance)): 22 µL/min/mg
half-life at 1 μM ([3]; NADPH-free T1/2 (half-life)): 1.75 h

Source: patent US9663511B2, “Sphingosine 1-phosphate receptor antagonists” (ARROYO BIOSCIENCES, LLC, priority 2012, dated 2017)
